Earlier results, collected in publication PMC7510478, “The effect of size, charge, and peptide ligand length on kidney targeting by small, organic nanoparticles” (Bioengineering & Translational Medicine, 2020).

Tests used:
ADPKD patients = system: ADPKD patients
Text: Chronic kidney disease (CKD) affects 600 million people globally and is characterized by gradual kidney function decline. ^1 A common form of CKD is autosomal dominant polycystic kidney disease (ADPKD), which affects over 12 million people worldwide and is characterized by renal cyst formation that can result in the need for dialysis or kidney transplant. ^2 , ^3 , ^4 , ^5 Currently, there is no cure for ADPKD and tolvaptan is the only FDA approved treatment for ADPKD. ^6 Despite enthusiasm, tolvaptan has been reported to cause several side effects including polyuria, thirst, nocturia, and dru ...

megalin = system: megalin; design: method as in PMID 27617593, PMID 19202329, PMID 11994745, PMID 9574443
[1] = study of 961 ADPKD patients undergoing tolvaptan treatment

| Compound | Patients affected by polyuria (ADPKD patients; ADPKD patients on tolvaptan) [%] | Adverse event rate, nocturia (ADPKD patients; [1]) [%] | Adverse event rate, thirst (ADPKD patients; [1]) | Uptake in megalin‐deficient mice (megalin) |
| --- | --- | --- | --- | --- |
| Cc1ccccc1C(=O)Nc1ccc(C(=O)N2CCCC(O)c3cc(Cl)ccc32)c(C)c1 (stereo not shown) [tolvaptan] | 38 | ~29 | approximately 55% |  |
| [Lys–Lys–Glu–Glu–Glu]3–Lys [(KKEEE)3K] |  |  |  | significantly reduced uptake |
